Patent US6730677B2, “Benzofurazan compounds which enhance AMPA receptor activity” (The Regents of the University of California, priority 1997, dated 2004)

Columns and labels:
AMPA receptors = assay: Field EPSP amplitude in field CA1 of rat hippocampal slice (in vitro physiological testing); assay type: cell-based; conditions: estimated by interpolation or extrapolation
From the text: The field EPSP (excitory post-synaptic potential) recorded in field CA1 after stimulation of CA3 axons is known to be mediated by AMPA receptors, which are present in the synapses (Kessler et al., Brain Res. 560: 337-341 (1991)). Drugs that selectively block the receptor selectively block the field EPSP (Muller et al., Science, supra). […] These effects are mirrored in the field EPSP (see, for example, Staubli et al., Psychobiology, supra; Xiao et al., Hippocampus, supra; Staubli et al., Hippocampus 2:4958 (1992)).
To obtain the data shown in Table I, a bipolar nichrome stimulating electrode was positioned in the dendritic layer (stratum radiatum) of the hippocampal subfield CA1 close to the border of subfield CA3, as described in Example 21. Current pulses (0.1 msec) through the stimulating electrode activate a population of the Schaffer-commissural (SC) fibers, which arise from neurons in the subdivision CA3 and terminate in synapses on the dendrites of CA1 neurons. Activation of these synapses causes them to release the transmitter glutamate. Glutamate binds to the post-synaptic AMPA receptors which then transiently open an associated ion channel and permit a sodium current to enter the post-synaptic cell. This current results in a voltage in the extracellular space (the field EPSP), which is recorded by a high impedance recording electrode positioned in the middle of the stratum radiatum of CA1.
The intensity of the stimulation current was adjusted to produce half-maximal EPSPs (typically about 1.5-2.0 mV). Paired stimulation pulses were given every 40 sec with an interpulse interval of 200 msec, as described further in Example 21.
(§1) Hippocampal slices were maintained in a recording chamber continuously perfused with artificial cerebrospinal fluid (ACSF). During 15-30 minute intervals, the perfusion medium was switched to one containing various concentrations of the test compounds. Responses collected immediately before and at the end of drug perfusion were superimposed in order to calculate the percent increase in EPSP amplitude.
Invention compounds 1-9, as shown in FIG. 3 and Table I below, and reference compound CX516 (1-(quinoxalin-6-ylcarbonyl)piperidine), disclosed in PCT Pubn. No. WO 94/02475, were assayed in the physiological test system described above.
as §1, with “The physiological effects of invention compounds were tested in vitro with” for “Hippocampal”, “slices of rat hippocampus according to the following procedure. Excitatory responses (field EPSPs) were measured in hippocampal slices, which” for “slices”, “During a” for “During”, “interval,” for “intervals,”
To conduct these tests, the hippocampus was removed from anesthetized, 2 month old Sprague-Dawley rats and in vitro slices (400 micrometers thick) were prepared and maintained in an interface chamber at 35° C. using conventional techniques [see, for example, Dunwiddie and Lynch, J. Physiol. 276: 353-367 (1978)]. The chamber was constantly perfused at 0.5 mL/min with ACSF containing (in mM): NaCl 124, KCl 3, KH2PO4 1.25, MgSO42.5, CaCl2 3.4, NaHCO3 26, glucose 10 and L-ascorbate 2. A bipolar nichrome stimulating electrode was positioned in the dendritic layer (stratum radiatum) of the hippocampal subfield CA1 close to the border of subfield CA3.
Current pulses (0.1 msec) through the stimulating electrode activate a population of the Schaffer-commissural (SC) fibers which arise from neurons in the subdivision CA3 and terminate in synapses on the dendrites of CA1 neurons. Activation of these synapses causes them to release the transmitter glutamate. […]

[1] = Eight-arm radial maze task for cognition/memory enhancement; assay type: in vivo
From the text: This task has been described previously (Staubli et al., PNAS 91:777-781 (1994)) and Lynch and Rogers, PCT Pubn. No. WO 94/02475).

[2] = Animal model of depression (Malatynska and Kostowski); assay type: in vivo; conditions: for Potency relative to the reference compound in the animal model of depression: compared with CX516; for MEDD: Minimum Effective Dose that produces a statistically significant improvement in behavior in an animal model of depression: in vivo
From the text: J. Pharmacol. 40, 357-364 (1984).

[3] = system: methamphetamine-induced hyperactivity and/or stereotypic activity; assay: Methamphetamine/rat model of schizophrenia (hyperactivity and/or stereotypic activity); assay type: in vivo, Sprague-Dawley rats; conditions: for MEDS: Minimum Effective Dose that produces a statistically significant improvement in behavior in the animal model of schizophrenia: rats, 2 mg/kg methamphetamine, activity monitored for 90 minutes
Method: The dose recorded is that which reduced the hyperactivity and/or the stereotypic activity induced by acute administration of 2 mg/kg methamphetamine in rats, as described in Example 22.
The dose recorded is that which reduced the hyperactivity and/or the stereotypic activity induced by acute administration of 2 mg/kg methamphetamine in Sprague-Dawley rats aged 2-4 months. Activity was monitored for 90 minutes using two rows of multiple, paired infrared diode-detectors such that the lower row detected locomotion and the upper row detected rearing behavior. Data were collected by and stored in a personal computer for later analysis.

SMILES	melting point	Amp: concentration of compound that causes a 10% increase in the amplitude of the field EPSP in Field CA1 of rat hippocampal slice (AMPA receptors)	MEDC: Minimum Effective Dose that produces a statistically significant improvement in behavior in the eight-arm radial maze task [1]	other results
O=C(c1ccc2nsnc2c1)N1CCCCC1 [Compound 1, 1-(Benzo-2,1,3-thiadiazole-5-ylcarbonyl)piperidine]	–	<100 µM	–	–
O=C(c1ccc2nonc2c1)N1CC=CCC1 [Compound 3, 1-(Benzofurazan-5-ylcarbonyl)-1,2,3,6-tetrahydropyridine]	–	100 µM	–	–
O=C(c1ccc2nonc2c1)N1CCC(O)CC1 [Compound 9, 1-(Benzofurazan-5-ylcarbonyl)-4-hydroxypiperidine]	132 to 136 °C	20 µM	0.1 mg/kg	Potency relative to the reference compound in the animal model of depression [2]: approximately 500 fold; MEDD: Minimum Effective Dose that produces a statistically significant improvement in behavior in an animal model of depression [2]: 0.01 mg/kg
O=C(c1ccc2nonc2c1)N1CCC(F)(F)CC1 [Compound 5, 1-(Benzofurazan-5-ylcarbonyl)-4,4-difluoropiperidine]	–	50 µM	–	MEDS: Minimum Effective Dose that produces a statistically significant improvement in behavior in the animal model of schizophrenia [3]: 1 mg/kg
N#CC1CCN(C(=O)c2ccc3nonc3c2)CC1 [Compound 8, 1-(Benzofurazan-5-ylcarbonyl)-4-cyanopiperidine]	104 to 107 °C	1 µM	0.1 mg/kg	–
O=C(c1ccc2nccnc2c1)N1CCCCC1 [CX516, 1-(quinoxalin-6-ylcarbonyl)piperidine, reference compound]	–	50 µM	15 mg/kg	MEDS: Minimum Effective Dose that produces a statistically significant improvement in behavior in the animal model of schizophrenia [3]: 10 mg/kg; MEDD: Minimum Effective Dose that produces a statistically significant improvement in behavior in an animal model of depression [2]: 5 mg/kg
O=C(c1ccc2nonc2c1)N1CCC(F)CC1 [Compound 4, 1-(Benzofurazan-5-ylcarbonyl)-4-fluoropiperidine]	–	30 µM	–	MEDS: Minimum Effective Dose that produces a statistically significant improvement in behavior in the animal model of schizophrenia [3]: 1 mg/kg
O=C(c1ccc2nonc2c1)N1CC=C(F)CC1 [Compound 6, 1-(Benzofurazan-5-ylcarbonyl)-1,2,3,6-tetrahydro-4-fluoropyridine]	–	30 µM	–	–
O=C(c1ccc2nonc2c1)N1CCOCC1 [Compound 7, 4-(Benzofurazan-5-ylcarbonyl)morpholine]	–	3 µM	0.1 mg/kg	–

Continued, in another order:

melting point	SMILES	Amp: concentration of compound that causes a 10% increase in the amplitude of the field EPSP in Field CA1 of rat hippocampal slice (AMPA receptors)	MEDC: Minimum Effective Dose that produces a statistically significant improvement in behavior in the eight-arm radial maze task [1]	other results
86 to 87 °C	O=C(c1ccc2nonc2c1)N1CCCCCC1 [Compound 14, 1-(Benzofurazan-5-ylcarbonyl)hexamethyleneimine]	–	–	–
86 to 87 °C	CC1CCN(C(=O)c2ccc3nonc3c2)CC1 [Compound 13, 1-(Benzofurazan-5-ylcarbonyl)-4-methylpiperidine]	–	–	–
97.8 to 99.3 °C	O=C(c1ccc2nonc2c1)N1CCCC1 [Compound 11, 1-(Benzofurazan-5-ylcarbonyl)pyrrolidine]	–	–	–
117 to 118 °C	O=C(c1ccc2nonc2c1)N1CC=CC1 [Compound 12, 1-(Benzofurazan-5-ylcarbonyl)-3-pyrroline]	–	–	–
88.5 to 90.5 °C	O=C(c1ccc2nonc2c1)N1CCCCC1 [Compound 2, 1-(Benzofurazan-5-ylcarbonyl)piperidine]	3 µM	0.1 mg/kg	Reduction in dose giving an equivalent effect relative to reference compound CX516 ([3]; methamphetamine/rat model): hundred-fold; MEDS: Minimum Effective Dose that produces a statistically significant improvement in behavior in the animal model of schizophrenia [3]: 0.1 mg/kg; Potency relative to the reference compound in the animal model of depression [2]: approximately 500 fold; MEDD: Minimum Effective Dose that produces a statistically significant improvement in behavior in an animal model of depression [2]: 0.01 mg/kg
144 to 146 °C	O=C(c1ccc2nonc2c1)[SH]1CCNCC1 [Compound 10, 1-(Benzofurazan-5-ylcarbonyl)thiomorpholine]	–	–	–
